Data taken from patent publication US20230227453A1 (priority 2020, published 2023).

Legend:
[1] = tested on: 5HT2A sensor; type: cell-based
[2] = tested on: 5HT2A sensor; type: cell-based; remark: listed apart in the source
[3] = tested on: rat cortical neurons; assay: Neurite Outgrowth Assay (Procedure B); type: cell-based; design: key: A: Statistically significant mean increase as a percent of DMSO control at 10 μM or less; B: No statistically significant mean increase as a percent of DMSO control at 10 μM or less; conditions: primary rat neuronal cultures, 72h, vs DMSO control, 10 μM or less
Protocol: Neurite Outgrowth Assay (Procedure B). Pregnant Wistar rats (Janvier; France) were used for the study. They were delivered 6 days before their use. Upon arrival at Neurofit animal facility, they were housed one per cage and maintained in a room with controlled temperature (21-22° C.) and a reversed light-dark cycle (12h/12h; lights on: 17:30-05:30; lights off: 05:30-17:30) with food and water available ad libitum.
Female Wistar rats of 17 days gestation were killed by cervical dislocation and the fetuses were removed from the uterus. Their brains were placed in ice-cold medium of Leibovitz (L15, Gibco, Fisher bioblock, France). Cortices were dissected and meninges were carefully removed. The cortical neurons were dissociated by trypsinization for 30 min at 37° C. (trypsin-EDTA, Gibco) in presence of 0.1 mg/ml DNAse I (Roche, France). The reaction was stopped by addition of Dulbecco's Modified Eagle Medium (DMEM; Gibco) with 10% of fetal bovine serum (FBS; Gibco). The suspension was triturated with a 10-ml pipette and using a needle syringe 21G and centrifuged at 350×g for 10 min at room temperature. The pellet of dissociated cells was resuspended in a medium consisting of Neurobasal (Gibco) supplemented with 2% B27 supplement (Gibco), 0.5 mM L-Glutamine (Gibco), an antibiotic-antimicotic mixture. Viable cells were counted in a Neubauer cytometer using the trypan blue exclusion test (Sigma). Cells were seeded at a density of 10000 cells per well in 96-well plate (Costar) precoated with poly-L-lysine. Test compound at different concentrations were added to the cultures. Donepezil (positive control) was tested at 250 nM.
After 72h (3 days) of plating, cultures were fixed with paraformaldehyde in PBS (4%, Sigma) for 30 min at 4° C. Then, cells were successively permeabilized with 0.1% Triton X100 for 30 min, saturated with PBS containing 3% of BSA and were incubated 1 h with anti-beta III tubulin antibody (Sigma) at 1/10 000 in PBS containing 0.5% of BSA. Cells were washed three times with PBS containing 0.5% of BSA, and they were incubated 1 h with goat anti-mouse antibody coupled with AF488 (Invitrogen A11001) diluted at 1/1000 in PBS containing 0.5% of BSA. Finally, nuclei were staining with DAPI 1 mg/ml at 1/1000 in PBS containing 0.5% of BSA. After rinsing with PBS, the plate was filmed and neurite networks were examined and analyzed using High-Content Screening (Celllnsight, Thermo Scientific). The average number of neurites per neuron and the average total length of neurites per neuron were the main parameters analyzed. Analysis of data was performed using analysis of variance (ANOVA). The Fisher's Protected Least Significant Difference test was used for multiple comparisons. A p value≤0.05 was considered significant. The software used is StatView 5.0 from SAS Institut.

[4] = tested on: C57BL/6J Mice; assay: Head twitch response (HTR) experiments; type: in vivo, mouse
Protocol: Head twitch response (HTR) experiments. All HTR experiments were performed by Transpharmation Ltd, London, UK. C57BL/6J Mice (9-10 weeks old) were obtained and housed following an IACUC approved protocol. The mice were habituated in the test cage for at least 30 min, injected intraperitoneally with compound (injection volume 5 ml/kg), returned to the empty test cage, and filmed for 20 minutes. Each video is scored for the number of head-twitches by a trained observer blinded to treatment condition.

[5] = biological target: T1, 5-HT2A (Homo sapiens, UniProt P28223); assay: Serotonin 5-HT2A in vitro cellular IPOne agonism assay; type: cell-based; design: host or cells: CHO-K1; conditions: CHO-K1 cells, IPOne HTRF, 60 min
Protocol: Serotonin 5-HT2A In Vitro Cellular IPOne Agonism Assay. The 5-HT2A IPOne HTRF assay was performed at Epics Therapeutics S.A. (Belgium, FAST-0505I) using conventional methods. Briefly, CHO-K1 cells expressing human recombinant 5-HT2A receptor grown to mid-log phase in culture media without antibiotics were detached with PBS-EDTA, centrifuged, and resuspended in medium without antibiotics buffer. 20,000 cells are distributed in a 96 well plate and incubated overnight at 37° C. with 5% CO2.
For agonist testing, the medium is removed and 20 μl of assay buffer plus 20 μl of test compound or reference agonist are added in each well. The plate is incubated for 60 min. at 37° C. with 5% CO2.
After addition of the lysis buffer containing IP1-d2 and anti-IP1 cryptate detection reagents, plates are incubated 1-hour at room temperature, and fluorescence ratios are measured according to the manufacturer specification, with the HTRF kit.

[6] = biological target: T1, 5-HT2A; assay: Serotonin 5-HT2A in vitro radioligand binding competition assay; design: purchased Epics Therapeutics S.A. (Belgium) FAST-0505B; host or cells: membrane extracts; conditions: radiotracer [3H]-DOI, membrane extracts
Protocol: Serotonin 5-HT2A In Vitro Radioligand Binding Competition Assay. The 5-HT2A radioligand binding competition assay was performed at Epics Therapeutics S.A. (Belgium, FAST-0505B) using conventional methods. Briefly, competition binding is performed in duplicate in the wells of a 96 well plate (Master Block, Greiner, 786201) containing binding buffer (optimized for each receptor), membrane extracts (amount of protein/well optimized for each receptor), radiotracer [^3H]-DOI (final concentration optimized for each receptor) and test compound. Nonspecific binding is determined by co-incubation with 200-fold excess of cold competitor. The samples are incubated in a final volume of 0.1 ml at a temperature and for a duration optimized for each receptor and then filtered over filter plates. Filters are washed six times with 0.5 ml of ice-cold washing buffer (optimized for each receptor) and 50 μl of Microscint 20 (Packard) are added in each well. The plates are incubated 15 min on an orbital shaker and then counted with a TopCount™ for 1 min/well.

T1 sequence (P28223 whole entry): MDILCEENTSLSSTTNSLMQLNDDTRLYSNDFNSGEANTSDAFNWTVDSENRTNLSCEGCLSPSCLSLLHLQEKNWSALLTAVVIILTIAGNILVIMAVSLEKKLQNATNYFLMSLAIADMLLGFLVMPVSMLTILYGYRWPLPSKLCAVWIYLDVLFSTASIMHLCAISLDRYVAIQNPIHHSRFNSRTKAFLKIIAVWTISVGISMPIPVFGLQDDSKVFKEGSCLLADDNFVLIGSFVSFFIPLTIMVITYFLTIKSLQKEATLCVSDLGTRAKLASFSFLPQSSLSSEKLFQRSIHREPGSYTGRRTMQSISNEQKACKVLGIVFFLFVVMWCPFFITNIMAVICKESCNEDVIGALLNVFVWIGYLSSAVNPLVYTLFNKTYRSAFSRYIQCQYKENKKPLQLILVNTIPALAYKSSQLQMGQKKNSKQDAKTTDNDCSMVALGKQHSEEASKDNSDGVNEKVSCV

SMILES: CCN(CC)C(=O)[C@@H]1C=C2c3cccc4[nH]c(Br)c(c34)C[C@H]2N(C)C1 [BOL148]
- activation of the 5HT2A sensor assay [1]: do not activate the 5HT2A sensor assay in agonist mode
- competition with 5-HT in the 5HT2A sensor assay [2]: compete with 5HT binding to 5HT2A

SMILES: CN(C)CCc1c[nH]c2ccccc12 [DMT, N,N-dimethyltryptamine]
- activation of the 5HT2A sensor assay [1]: activate the 5HT2A sensor assay in agonist mode

SMILES: COc1cc(CC(C)N)c(OC)cc1I (stereo not drawn) [DOI]
- activation of the 5HT2A sensor assay [1]: activate the 5HT2A sensor assay in agonist mode

SMILES: COc1ccc2c3c([nH]c2n1)CCN(C)CC3 [Example 1, 2-methoxy-7-methyl-5,6,7,8,9,10-hexahydropyrido[3′,2′:4,5]pyrrolo[2,3-d]azepine]
- Increase in Neurite Length [3]: A
- Increase in Neurite Number [3]: A
- Number of head twitches ([4]; intraperitoneal, 10 mg/kg, filmed for 20 minutes): A (10 head twitches or less at 10 mg/kg)
- EC50 [5]: 0.101 to 1 µM
- IC50 [6]: 1 to 10 µM

SMILES: COc1ccc2[nH]cc(CCN(C)C)c2c1 [Example 5-MeO-DMT]
- head-twitch response (HTR) [4]: produces a robust, dose-dependent head-twitch response
- activation of the 5HT2A sensor assay [1]: activate the 5HT2A sensor assay in agonist mode

SMILES: CCN(CC)CCc1c[nH]c2cc(F)ccc12 [Example 6-F-DET]
- activation of the 5HT2A sensor assay [1]: do not activate the 5HT2A sensor assay in agonist mode
- competition with 5-HT in the 5HT2A sensor assay [2]: compete with 5HT binding to 5HT2A

SMILES: COc1ccc2c(CCN(C)C)c[nH]c2c1 [Example 6-MeO-DMT]
- head-twitch response (HTR) [4]: does not produce a HTR
- activation of the 5HT2A sensor assay [1]: do not activate the 5HT2A sensor assay in agonist mode
- competition with 5-HT in the 5HT2A sensor assay [2]: compete off 5-HT

SMILES: Cc1ccc2c3c([nH]c2n1)CCN(C1COC1)CC3 [Example 9, 2-methyl-7-(oxetan-3-yl)-5,6,7,8,9,10-hexahydropyrido[3′,2′:4,5]pyrrolo[2,3-d]azepine]
- Increase in Neurite Length [3]: B
- Increase in Neurite Number [3]: B
- EC50 [5]: > 10 µM
- IC50 [6]: > 10 µM

SMILES: Cc1ccc2c3c(n(C)c2n1)CCN(C1COC1)CC3 [Example 11, 2,10-dimethyl-7-(oxetan-3-yl)-5,6,7,8,9,10-hexahydropyrido[3′,2′:4,5]pyrrolo[2,3-d]azepine]
- Increase in Neurite Length [3]: B
- Increase in Neurite Number [3]: B
- EC50 [5]: > 10 µM
- IC50 [6]: > 10 µM

SMILES: Cc1ccc2c3c(n(C)c2n1)CCN(C)CC3 [Example 12, 2,7,10-trimethyl-5,6,7,8,9,10-hexahydropyrido[3′,2′:4,5]pyrrolo[2,3-d]azepine]
- Increase in Neurite Length [3]: B
- Increase in Neurite Number [3]: B
- EC50 [5]: 0.101 to 1 µM
- IC50 [6]: 1 to 10 µM

SMILES: O=C(c1ccc(F)cc1)C1CCN(CCn2c(=O)[nH]c3ccccc3c2=O)CC1 [Ketanserin]
- activation of the 5HT2A sensor assay [1]: do not activate the 5HT2A sensor assay in agonist mode
- competition with 5-HT in the 5HT2A sensor assay [2]: compete with 5HT binding to 5HT2A

SMILES: CNC(C)Cc1ccc2c(c1)OCO2 [L-MDMA]
- activation of the 5HT2A sensor assay [1]: do not activate the 5HT2A sensor assay in agonist mode

SMILES: CCN(CC)C(=O)[C@@H]1C=C2c3cccc4[nH]cc(c34)C[C@H]2N(C)C1 [LSD]
- activation of the 5HT2A sensor assay [1]: activate the 5HT2A sensor assay in agonist mode

SMILES: CN[C@H](C)Cc1ccc2c(c1)OCO2 [R-MDMA]
- activation of the 5HT2A sensor assay [1]: do not activate the 5HT2A sensor assay in agonist mode
